pIC50: −log10 of the molar value. “And” between values parts separate entries of the source, which are not always exact repeats. Equal entries are not always repeated. Structures can show the parent of a compound that is named as a salt. Where two headings read alike, the source gives them in different places.

Results on five compounds are retold here after US11286263B2, “Macrocyclic fluorine substituted indole derivatives” (The Broad Institute, Inc., priority 2017, dated 2022).

Series [1] deals with MCL-1 (Homo sapiens (Human), UniProt Q07820, K194A/K197A/R201A). In words: Protein-protein interaction assay MCL-1/Noxa BH3 peptide (MCL-1 assay), TR-FRET. The series is classed as binding. The following applies: MCL-1/Noxa BH3 peptide TR-FRET; median. Here is the method: Protein-Protein Interaction Assay: MCL-1/Noxa BH3 Peptide (MCL-1 Assay)
Chain of MCL-1 (Q07820 whole entry K194A/K197A/R201A, looked up, the tested form may be a part): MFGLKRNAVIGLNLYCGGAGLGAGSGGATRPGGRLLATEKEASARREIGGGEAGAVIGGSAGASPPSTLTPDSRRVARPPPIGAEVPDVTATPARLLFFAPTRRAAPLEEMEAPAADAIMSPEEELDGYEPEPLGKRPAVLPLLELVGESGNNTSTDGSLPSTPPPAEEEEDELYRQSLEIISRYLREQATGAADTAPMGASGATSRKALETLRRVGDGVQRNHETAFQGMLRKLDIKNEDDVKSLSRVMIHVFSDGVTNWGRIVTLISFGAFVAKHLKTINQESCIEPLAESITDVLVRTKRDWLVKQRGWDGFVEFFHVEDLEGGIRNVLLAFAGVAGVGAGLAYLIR
The dose-dependent inhibition by the compounds described in this invention of the interaction between MCL-1 and the BH3 domain of Noxa (both human) was determined using a steady state binding competition assay with time-resolved fluorescence energy transfer (TR-FRET) readout. For that purpose MCL-1 (amino acids 173-321, N-terminal fused to Maltose Binding Protein (MBP) SEQ ID 1)) and a synthetic Noxa BH3-derived peptide of sequence Biotin-PEG2-PEG2-PAELEVE-Nva-ATQLRRFGDKLNFRQKLL-amide (SEQ ID 2) served as protein receptor and tracer ligand respectively. The MBP-MCL-1 was purchased from Beryllium (Bedford, Mass., USA). The expression and purification of this protein construct has been described elsewhere (DOI:10.1371/journal.pone.0125010). The Noxa BH3-derived peptide can be obtained from e.g. Biosyntan (Berlin, Germany).
In the assay 11 different concentrations of each compound (0.1 nM, 0.33 nM, 1.1 nM, 3.8 nM, 13 nM, 44 nM, 0.15 μM, 0.51 μM, 1.7 μM, 5.9 μM and 20 μM) were typically measured as duplicates in the same microtiter plate. For that, 100-fold concentrated DMSO solutions were prepared by serial dilutions (1:3.4) of a 2 mM stock solution in a clear, 384-well microtiter plate (Greiner Bio-One, Frickenhausen, Germany). From there, 50 nl were transferred in a dark test plate (Greiner Bio-One, Frickenhausen, Germany). The assay was initiated by addition of 2 μl of a 2,5-fold concentrated MBP-MCL-1 solution (usually for a 1 nM end concentration in 5 μl reaction volume) in aqueous assay buffer [50 mM Tris/HCl pH 7, 100 mM sodium chloride (NaCl), 50 mM potassium fluoride (KF), 0.005% Tween-20, 2 mM DTT, 0.1% bovine gamma globulin (BGG)] to the compounds in the assay plate. This was followed by a 10-minute incubation step at 22° C. for pre-equilibration of the putative complex between MBP-MCL-1 and the compounds. After that, 3 μl of a 1.67-fold concentrated solution (in assay buffer) consisting of Noxa BH3-derived peptide (1 nM end concentration) and TR-FRET detection reagents [1.67 nM anti-MBP-Eu cryptate and 1.67 nM streptavidin-XL665 (both from Cisbio Bioassays, Codolet, France)], were added.
The mixture was incubated in the dark for one hour at 22° C. and then overnight at 4° C. The formation of MCL-1/Noxa complexes was determined by measuring the resonance energy transfer of the anti-MBP-Eu-cryptate antibody to the streptavidin-XL665 present in the reaction. For that purpose, the fluorescence emission at 620 nm and 665 nm after excitation at 330-350 nm was measured in a TR-FRET measuring instrument, for instance a Rubystar or a Pherastar (both from BMG Lab Technologies, Offenburg, Germany) or a Viewlux (Perkin-Elmer). The ratio of the emission at 665 nm and at 622 nm was used as indicator of the amount of MCL-1/NOXA complexes present.
The resulting data (ratio) were normalized, taking 0% inhibition as the mean value of control measurements (usually 32 data points) where all reagents were included. In this case 50 nl DMSO were used instead of compounds. A 100% inhibition corresponded to the mean value of control measurements (usually 32 data points) where all reagents except MCL-1 were included. IC50 values were determined by regression analysis based on a 4 parameter equation (minimum, maximum, IC50, Hill; Y=Max+(Min−Max)/(1+(X/IC50)^Hill) using the Screener Software (Genedata).

Series [2] relates to SUDHL5. In words: Induction of caspase-3/7 activity, SUDHL5 (Assay 4). The series is classed as cell-based. The following applies: SUDHL5 cells. Here is the method: (§1) Induction of Caspase-3/7 Activity upon Treatment of Cells with Selected Compounds
(§2) The BH3-domain of MCL-1 sequesters pro-apoptotic proteins, thereby inhibiting apoptosis. In contrast, MCL-1 inhibitors are expected to antagonize this effect leading to an increase in apoptosis, which can be determined by measuring the activity of caspase-3/7.
(§3) The activity of caspase-3/7 was determined in DLBCL (Diffuse large B-cell lymphoma) cell lines (SUDHL5 and SUDHL10) upon treatment with different compounds, using the Caspase-Glo® 3/7 reagent from Promega (G8092).
(§4) Rim wells were excluded. The cells were incubated for 3 h hours in a humidified incubator at 37° C.
(§5) For the evaluation of the results, the background measured with “medium-only” was subtracted from all other values. […] The Bella DRC Master Sheet was used to calculate EC50s, with fixed C0=1 and Cl=plateau/max induction for the reference compound.

The test system of series [3] is SUDHL10. As to the kind of experiment: Induction of caspase-3/7 activity, SUDHL10 (Assay 4). In kind it is cell-based. The following applies: SUDHL10 cells. Here is the method:
as §1, §2, §3, §4, §5

The subject of series [4] is SUDHL5. As to the kind of experiment: Antiproliferation assay SUDHL5 (Assay 7). In kind it is cell-based. As to conditions: SUDHL5 cells, CellTiter-Glo, median, read-out: IC50 Antiproli SUDHL5 [M] (median). The method, then:
(§6) Assessment of the Anti-Proliferative Effect of Compounds in Different Cell Lines
(§7) The impact of compounds on the proliferation of different cell lines was assessed using the CellTiter-Glo® Luminescent Cell Viability reagent from Promega (G7573).
(§8) In parallel, cells were plated in a reference (day 0) plate for time zero determination.
(§9) Rim wells were excluded. The cells were incubated for 72 h hours in a humidified incubator at 37° C. The day 0 plate was measured by adding 30 μL/well of CTG solution (CellTiter-Glo® Luminescent Cell Viability reagent, Promega G7573) to time zero wells in the reference plate followed by a 10 minutes incubation and luminescence reading at 0.1 ms. using the PHERAstar FS microplate reader (BMG Labtech).
(§10) After 72 h incubation, the treated plates were measured in the same way as the day 0 plate mentioned above.
Background: ATP-based viability assays read luminescence as a measure of living cells.

Series [5] concerns SUDHL10. As to the kind of experiment: Antiproliferation assay SUDHL10 (Assay 7). The following applies: Homo sapiens, SU-DHL10; SUDHL10 cells, 72 h, CellTiter-Glo; median; read-out: IC50 Antiproli SUDHL10 [M] (median). In kind it is cell-based. Here is the method:
as §6, §7, §8, §9, §10

For series [6], the system named is AMO-1. In words: Antiproliferation assay AMO-1 (Assay 7). The series is classed as cell-based. As to conditions: AMO-1 cells, CellTiter-Glo, single determinations, read-out: IC50 Antiproli AMO-1. The method, then: as §6, §7, §8, §9, §10
Series [7] deals with A2780. In words: Antiproliferation assay A2780 (Assay 7). In kind it is cell-based. The following applies: A2780 cells, CellTiter-Glo, single determinations, read-out: IC50 Antiproli A2780. Here is the method:
as §6, §7, §8, §9, §10

Series [8] relates to SUDHL5. In words: Induction of cytotoxicity, SUDHL5 (Assay 6). The following applies: read-out: IC50 Cytotox SUDHL5 [M] (median), SUDHL5 cells, 5 h, CellTiter-Glo.
For series [9], the system named is SUDHL10. In words: Induction of cytotoxicity, SUDHL10 (Assay 6). The following applies: read-out: IC50 Cytotox SUDHL10 [M] (median), SUDHL10 cells, 5 h, CellTiter-Glo.
For series [10], the system named is HMC-1-8. In words: Antiproliferation assay HMC-1-8 (Assay 7). In kind it is cell-based. The following applies: HMC-1-8 cells, 72 h, CellTiter-Glo; single determinations; read-out: IC50 Antiproli HMC-1-8. The method, then:
as §6, §7, §8, §9, §10

In series [11] the test system is MV-4-11. In words: Antiproliferation assay MV-4-11 (Assay 7). The series is classed as cell-based. The following applies: MV-4-11 cells, 72 h, CellTiter-Glo; single determinations; read-out: IC50 Antiproli MV-4-11. The method, then: as §6, §7, §8, §9, §10
[12] abbreviates: Homo sapiens, SU-DHL-5, 3 h, Caspase-Glo 3/7, median.
[13] abbreviates: Homo sapiens, SU-DHL10, 3 h, Caspase-Glo 3/7, median.

On to `Cc1c2c(nn1C)COCCCCn1c(C(=O)O)c(CCCOc3cccc4cc(F)ccc34)c3ccc(F)c-2c31` (racemic) [Example 12, (rac)-13-fluoro-1-(3-((6-fluoronaphthalen-1-yl)oxy)propyl)-11,12-dimethyl-4,5,6,7,9,11-hexahydropyrazolo[4′,3′:9,10][1]oxa[6]azacycloundecino[8,7,6-hi]indole-2-carboxylic acid], for which the IC50 was determined as 0.00085 µM in [1]; 6.5e-07 M in series [4] (Homo sapiens, SU-DHL-5, 72 h); 7.2e-07 M in [5]; 6e-07 M in series [8] (Homo sapiens, SU-DHL-5, 5 h); 8.2e-07 M in series [9] (Homo sapiens, SU-DHL10, 5 h). Moreover, the EC50 in [2] (setting [12]) came out at 0.48 µM; in series [3] (setting [13]), 0.8 µM. Also, the negative-log IC50 (pIC50) was 6.06 in series [6] (72 h); 5.82 in [6] (Homo sapiens, AMO1, 72 h); 5.33 in [7] (Homo sapiens, A2780, 72 h).
`CCc1nn(C)c2c1-c1c(F)ccc3c(CCCOc4cccc5cc(F)ccc45)c(C(=O)O)n(c13)CCCCOC2` (racemic) [Example 38, (rac)-12-ethyl-13-fluoro-1-(3-((6-fluoronaphthalen-1-yl)oxy)propyl)-10-methyl-4,5,6,7,9,10-hexahydropyrazolo[4′,3′:9,10][1]oxa[6]azacycloundecino[8,7,6-hi]indole-2-carboxylic acid]: the IC50 in series [1] is 0.0011 µM; in series [4] (Homo sapiens, SU-DHL-5, 72 h), 9.3e-07 M; in series [5] it was 1e-06 M; in series [8] (Homo sapiens, SU-DHL-5, 5 h), 1e-06 M; in series [9] (Homo sapiens, SU-DHL10, 5 h), 1.4e-06 M. The values for the EC50 in series [2] (setting [12]) and in [3] (setting [13]) were 0.87 µM and 2 µM, respectively. The negative-log IC50 (pIC50) in series [6] (72 h) was 5.61 and 5.79; in series [6] (Homo sapiens, AMO1, 72 h), 5.63.
As to `CCc1c2c(nn1C)COCCCCn1c(C(=O)O)c(CCCOc3cccc4cc(F)ccc34)c3ccc(F)c-2c31` (single isomer, unassigned; enantiomer 2) [Example 25, 3-ethyl-4-fluoro-7-{3-[(6-fluoronaphthalen-1-yl)oxy]propyl}-2-methyl-2,10,11,12,13,15-hexahydropyrazolo[4′,3′:9,10][1,6]oxazacycloundecino[8,7,6-hi]indole-8-carboxylic acid (enantiomer 2)], the IC50 worked out at 0.013 µM in [1], 8.1e-06 M in [4] (72 h), 1.2e-05 M in [8] and 2.2e-05 M in series [9]. Further, in series [3] (3 h, Caspase-Glo 3/7, median), the EC50 is above 33 µM. The pIC50 in [6] (72 h) is 4.48; in series [10] it was 4.68.
Consider `CCc1nn(C)c2c1-c1c(F)ccc3c(CCCOc4cccc5cc(F)ccc45)c(C(=O)O)n(c13)CCCCOC2` (single isomer, unassigned; enantiomer 2) [Example 40, 3-ethyl-4-fluoro-7-{3-[(6-fluoronaphthalen-1-yl)oxy]propyl}-1-methyl-1,10,11,12,13,15-hexahydropyrazolo[4′,3′:9,10][1,6]oxazacycloundecino[8,7,6-hi]indole-8-carboxylic acid-N-ethylethanamine salt (enantiomer 2)], for which the IC50 was 0.04 µM in [1], 1.4e-05 M in [4] (72 h), 2.3e-05 M in series [8] and above 2.5e-05 M in series [9]. The EC50 is 21 µM in series [2] (3 h, Caspase-Glo 3/7, median) and above 33 µM in series [3] (3 h, Caspase-Glo 3/7, median). For the same compound, the pIC50 is 4.84 and 4.94 in series [11]; below 4.48 in [6] (72 h); 4.53 in series [7] (72 h).
`Cc1c2c(nn1C)CNCCCCn1c(C(=O)O)c(CCCOc3cccc4ccccc34)c3ccc(F)c-2c31` (single isomer, unassigned; enantiomer 2) [Example 49, 4-fluoro-2,3-dimethyl-7-{3-[(naphthalen-1-yl)oxy]propyl}-10,11,12,13,14,15-hexahydro-2H-pyrazolo[3′,4′:8,9][1,6]diazacycloundecino[10,11,1-hi]indole-8-carboxylic acid (enantiomer 2)]: the IC50 in [1] was 0.04 µM; in [4] (72 h) it was 1e-05 M; in series [8] it was above 2.7e-05 M; in series [9], above 3.3e-05 M. Besides, the EC50 in series [2] (3 h, Caspase-Glo 3/7, median) is above 33 µM; in series [3] (3 h, Caspase-Glo 3/7, median), above 33 µM. Further, the pIC50 was 4.72 and 4.63 in series [11]; below 4.48 in series [6] (72 h); 4.82 in series [7] (72 h).

As a reminder, the IC50 is the concentration that gives 50% inhibition. Usually EC50 stands for the concentration at which the effect is half-maximal. Usually pIC50 stands for the IC50 on a negative log10 scale, so that one unit is a factor of ten.
